Data reported in ChEMBL document CHEMBL1909046, “DrugMatrix in vitro pharmacology data”.

What was measured:
[1] = molecular target: Vascular endothelial growth factor receptor 1 (Homo sapiens, UniProt P17948); type: cell-based; conditions: huvec; note: in other assays of this panel Not Active means under 50% inhibition at 10 µM
[2] = DRUGMATRIX: Leukotriene, BLT (LTB4) radioligand binding (ligand: [3H]LTB4); type: cell membranes, Membrane; conditions: u-937; Not Active = under 50% inhibition at 10 µM
[3] = molecular target: Matrix metalloproteinase-9 (Homo sapiens, UniProt P14780); type: cell-based;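 note: inhibition of isolated MMP-9 enzyme activity toward a synthetic peptide substrate, from the DrugMatrix protease screening panel; in other assays of this panel Not Active means under 50% inhibition at 10 µM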
[4] = DRUGMATRIX: Nicotinic Acetylcholine radioligand binding (ligand: [125I] Epibatidine); type: cell membranes, Membrane; conditions: imr-32, Not Active = under 50% inhibition at 10 µM
[5] = molecular target: T1, Muscarinic acetylcholine receptor M4 (Homo sapiens, UniProt P08173); type: cell membranes, CHO-K1, Membrane; conditions: for Ki: read-out: Ki; for all read-outs here: in other assays of this panel Not Active means under 50% inhibition at 10 µM
T1 sequence (P08173 whole entry): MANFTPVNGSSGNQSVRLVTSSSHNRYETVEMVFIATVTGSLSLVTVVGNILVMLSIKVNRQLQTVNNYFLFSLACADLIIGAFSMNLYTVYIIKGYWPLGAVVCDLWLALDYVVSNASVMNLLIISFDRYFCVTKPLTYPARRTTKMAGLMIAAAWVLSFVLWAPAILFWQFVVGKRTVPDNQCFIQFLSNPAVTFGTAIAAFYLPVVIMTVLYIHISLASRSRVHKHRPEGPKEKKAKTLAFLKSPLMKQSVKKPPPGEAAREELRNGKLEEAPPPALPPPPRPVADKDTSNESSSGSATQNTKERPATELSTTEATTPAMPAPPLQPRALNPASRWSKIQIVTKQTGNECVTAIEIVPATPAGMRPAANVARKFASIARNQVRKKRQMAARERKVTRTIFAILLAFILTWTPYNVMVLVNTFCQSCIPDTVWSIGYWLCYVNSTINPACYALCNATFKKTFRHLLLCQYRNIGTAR

[6] = molecular target: Sigma non-opioid intracellular receptor 1 (Homo sapiens, UniProt Q99720); assay: DRUGMATRIX: Sigma1 radioligand binding (ligand: [3H] Haloperidol); type: cell membranes, Jurkat, Membrane; conditions: Not Active = under 50% inhibition at 10 µM
Sequence of Sigma non-opioid intracellular receptor 1 (Q99720 whole entry): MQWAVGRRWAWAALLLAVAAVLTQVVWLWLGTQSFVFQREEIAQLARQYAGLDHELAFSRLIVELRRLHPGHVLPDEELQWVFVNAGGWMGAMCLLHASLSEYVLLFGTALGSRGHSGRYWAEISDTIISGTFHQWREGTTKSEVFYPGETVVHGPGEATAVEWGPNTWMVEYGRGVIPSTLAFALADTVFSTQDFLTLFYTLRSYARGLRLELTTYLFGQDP

Sequence of Vascular endothelial growth factor receptor 1 (P17948 whole entry): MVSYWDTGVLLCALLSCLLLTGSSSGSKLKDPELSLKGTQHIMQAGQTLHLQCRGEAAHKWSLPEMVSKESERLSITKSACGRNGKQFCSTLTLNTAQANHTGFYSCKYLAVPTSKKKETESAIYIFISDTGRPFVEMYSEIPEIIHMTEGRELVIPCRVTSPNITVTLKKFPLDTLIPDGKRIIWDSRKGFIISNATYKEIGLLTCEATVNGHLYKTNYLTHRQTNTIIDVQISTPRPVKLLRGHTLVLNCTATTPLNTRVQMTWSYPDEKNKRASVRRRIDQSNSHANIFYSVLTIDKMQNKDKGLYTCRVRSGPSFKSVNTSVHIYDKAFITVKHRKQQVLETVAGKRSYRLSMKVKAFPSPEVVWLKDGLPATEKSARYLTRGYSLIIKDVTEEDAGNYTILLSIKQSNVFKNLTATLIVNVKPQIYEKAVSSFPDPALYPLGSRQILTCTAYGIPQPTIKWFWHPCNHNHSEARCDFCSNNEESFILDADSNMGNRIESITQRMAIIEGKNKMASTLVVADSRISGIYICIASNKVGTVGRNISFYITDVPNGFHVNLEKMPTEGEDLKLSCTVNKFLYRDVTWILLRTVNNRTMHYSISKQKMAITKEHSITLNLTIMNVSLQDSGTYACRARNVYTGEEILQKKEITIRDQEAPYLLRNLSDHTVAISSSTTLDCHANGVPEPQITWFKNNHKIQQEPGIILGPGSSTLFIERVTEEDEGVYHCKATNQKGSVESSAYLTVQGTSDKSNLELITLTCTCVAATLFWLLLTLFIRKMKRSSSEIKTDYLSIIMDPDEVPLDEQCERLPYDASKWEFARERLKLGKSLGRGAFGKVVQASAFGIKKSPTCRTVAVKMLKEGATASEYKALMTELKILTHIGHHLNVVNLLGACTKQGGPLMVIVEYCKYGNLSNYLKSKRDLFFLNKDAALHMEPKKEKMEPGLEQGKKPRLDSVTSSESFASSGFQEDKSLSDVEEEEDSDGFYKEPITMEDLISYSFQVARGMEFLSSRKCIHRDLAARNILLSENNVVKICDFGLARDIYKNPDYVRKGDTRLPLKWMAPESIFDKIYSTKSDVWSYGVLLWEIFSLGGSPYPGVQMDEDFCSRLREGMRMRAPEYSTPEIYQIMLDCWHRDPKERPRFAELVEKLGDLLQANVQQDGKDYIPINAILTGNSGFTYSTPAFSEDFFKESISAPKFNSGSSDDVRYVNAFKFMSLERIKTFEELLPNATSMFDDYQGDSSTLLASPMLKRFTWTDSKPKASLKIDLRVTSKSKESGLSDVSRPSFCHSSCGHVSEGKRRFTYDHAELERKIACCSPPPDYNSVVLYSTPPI
Sequence of Matrix metalloproteinase-9 (P14780 whole entry): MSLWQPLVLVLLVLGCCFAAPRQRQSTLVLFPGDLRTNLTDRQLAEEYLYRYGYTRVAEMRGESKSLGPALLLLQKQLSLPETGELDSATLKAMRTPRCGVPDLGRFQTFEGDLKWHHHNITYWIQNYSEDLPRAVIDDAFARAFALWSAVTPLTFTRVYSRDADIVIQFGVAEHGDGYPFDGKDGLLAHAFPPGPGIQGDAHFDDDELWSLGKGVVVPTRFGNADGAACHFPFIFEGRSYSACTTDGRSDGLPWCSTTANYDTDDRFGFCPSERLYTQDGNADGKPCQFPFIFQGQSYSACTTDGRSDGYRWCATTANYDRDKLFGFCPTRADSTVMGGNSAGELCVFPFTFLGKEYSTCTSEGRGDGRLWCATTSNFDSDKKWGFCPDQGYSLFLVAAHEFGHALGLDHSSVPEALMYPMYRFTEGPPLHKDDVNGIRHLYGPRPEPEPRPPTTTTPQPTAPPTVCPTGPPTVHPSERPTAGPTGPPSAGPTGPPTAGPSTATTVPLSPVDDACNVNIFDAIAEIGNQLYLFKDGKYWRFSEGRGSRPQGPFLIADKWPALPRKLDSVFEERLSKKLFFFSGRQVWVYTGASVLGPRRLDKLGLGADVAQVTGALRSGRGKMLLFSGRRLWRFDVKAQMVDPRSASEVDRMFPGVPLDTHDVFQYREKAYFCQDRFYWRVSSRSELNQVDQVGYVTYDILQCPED

| Structure (SMILES) | IC50 [1] | IC50 [2] | Ki [2] | IC50 [3] | IC50 [4] | Ki [4] | IC50 ([5]; cho-k1) | IC50 ([6]; jurkat) | IC50 ([5]; read-out: IC50) [nM] | Ki [5] [nM] | IC50 ([6]; read-out: IC50) [nM] | Ki ([6]; read-out: Ki) [nM] | IC50 ([4]; read-out: IC50) [nM] | Ki ([4]; read-out: Ki) [nM] |
| --- | --- | --- | --- | --- | --- | --- | --- | --- | --- | --- | --- | --- | --- | --- |
| O=C(O)COC(=O)Cc1ccccc1Nc1c(Cl)cccc1Cl [ACECLOFENAC] | Not Active | Not Active | Not Active | Not Active | Not Active | Not Active | Not Active | Not Active |  |  |  |  |  |  |
| COC(=O)Nc1nc2ccc(Sc3ccccc3)cc2[nH]1 [FENBENDAZOLE] | Not Active | Not Active | Not Active | Not Active | Not Active | Not Active | Not Active | Not Active |  |  |  |  |  |  |
| Cc1c(N)nc([C@H](CC(N)=O)NC[C@H](N)C(N)=O)nc1C(=O)N[C@H](C(=O)N[C@H](C)[C@@H](O)[C@H](C)C(=O)N[C@H](C(=O)NCCc1nc(-c2nc(C(=O)NCCC[S+](C)C)cs2)cs1)[C@@H](C)O)[C@@H](O[C@@H]1O[C@@H](CO)[C@@H](O)[C@H](O)[C@@H]1O[C@H]1O[C@H](CO)[C@@H](O)[C@H](OC(N)=O)[C@@H]1O)c1c[nH]cn1.[Br-] [BLEOMYCIN A2] | Not Active | Not Active | Not Active | Not Active | Not Active | Not Active | Not Active | Not Active |  |  |  |  |  |  |
| C#C[C@]1(O)CC[C@H]2[C@@H]3CCC4=CC(=O)CC[C@@H]4[C@H]3CC[C@@]21C [NORETHINDRONE] | Not Active | Not Active | Not Active | Not Active | Not Active | Not Active | Not Active | Not Active |  |  |  |  |  |  |
| CC(CN1c2ccccc2Sc2ccccc21)N(C)C (stereo unspecified) [PROMETHAZINE] | Not Active | Not Active | Not Active | Not Active | Not Active | Not Active |  |  | 7.58 | 1.06 | 287 | 120 |  |  |
| COc1cc(NC(C)CCCN)c2ncccc2c1 (stereo unspecified) [PRIMAQUINE] | Not Active | Not Active | Not Active | Not Active | Not Active | Not Active | Not Active | Not Active |  |  |  |  |  |  |
| CCCCCCNC(=O)n1cc(F)c(=O)[nH]c1=O [CARMOFUR] | Not Active | Not Active | Not Active | Not Active | Not Active | Not Active | Not Active | Not Active |  |  |  |  |  |  |
| Cc1cc(C(C)(C)C)c(O)c(C)c1CC1=NCCN1 [OXYMETAZOLINE] | Not Active | Not Active | Not Active | Not Active | Not Active | Not Active |  | Not Active | 3260 | 455 |  |  |  |  |
| O=c1[nH]c2ccccc2c2ccccc12 | Not Active | Not Active | Not Active | Not Active | Not Active | Not Active | Not Active | Not Active |  |  |  |  |  |  |
| C=C(Cl)Cl [1,1-DICHLOROETHENE] | Not Active | Not Active | Not Active | Not Active | Not Active | Not Active | Not Active | Not Active |  |  |  |  |  |  |
| CC(=O)[C@]1(O)Cc2c(O)c3c(c(O)c2[C@@H](O[C@H]2C[C@H](N)[C@H](O)[C@H](C)O2)C1)C(=O)c1ccccc1C3=O [IDARUBICIN] | Not Active | Not Active | Not Active | Not Active | Not Active | Not Active | Not Active | Not Active |  |  |  |  |  |  |
| Oc1ccccc1 [PHENOL] | Not Active | Not Active | Not Active | Not Active | Not Active | Not Active | Not Active | Not Active |  |  |  |  |  |  |
| O=C(Nc1ccc(Cl)c(Cl)c1)c1cc(Cl)cc(Cl)c1O [3,3',4',5-TETRACHLOROSALICYLANILIDE] | Not Active | Not Active | Not Active | Not Active | Not Active | Not Active | Not Active | Not Active |  |  |  |  |  |  |
| CC(=O)Nc1ccc2c(c1)Cc1ccccc1-2 [2-ACETYLAMINOFLUORENE] | Not Active | Not Active | Not Active | Not Active | Not Active | Not Active | Not Active | Not Active |  |  |  |  |  |  |
| C[N+](C)(C)CCOC(N)=O.[Cl-] [CARBACHOL] | Not Active | Not Active | Not Active | Not Active |  |  | Not Active | Not Active |  |  |  |  | 1000 | 334 |
| Oc1ncnc2[nH]ncc12 [ALLOPURINOL] | Not Active | Not Active | Not Active | Not Active | Not Active | Not Active | Not Active | Not Active |  |  |  |  |  |  |
